The subject of data set [1] is HIV-1. The experiment in a line: Multicycle antiviral assay in MT4-GFP cells. Type of data set: cell-based. Particulars: 10% NHS. The protocol: Compounds were evaluated for their ability to prevent HIV-1 infection in MT4-GFP cells as described in Diamond, and colleagues. HIV-1 replication was monitored using the MT4-gag-GFP clone D3, and MT4 cells with a GFP reporter gene, the expression of which is dependent on the HIV-1 expressed proteins tat and rev. […] Proviral variants used for these studies were generated by site-directed mutagenesis in the WT R8 proviral plasmid. Virus was produced by transfection in 293T cells.
Briefly, MT4-GFP cells were cultured overnight with the appropriate HIV-1 variant at an approximate multiplicity of infection of 0.01. After approximately 19 h of infection, the cells were washed and resuspended in assay media containing 10% normal human serum (NHS) before being added to 384-well compound plates containing 10-point serial 3-fold dilutions of compound. Controls included no inhibitor (dimethyl sulfoxide [DMSO] only) and a combination of 3 antiviral agents, efavirenz, indinavir, and an integrase strand transfer inhibitor, L-002254051, at final concentrations of 4 µM each. The infected or treated cells were cultured at 37 °C, 5% CO2, and 90% humidity until evaluation of infection was conducted at approximately 48 and 72 h post-infection by counting the number of GFP cells in each well using an Acumen eX3 scanner (SPT Labtech; Melbourn, UK). The reproductive ratio, R, was calculated by dividing the number of infected cells at 72 h by the number at 48 h post-infection. The percentage inhibition caused by a test compound was calculated by the following formula:
inhibition = [1−(Rtest compound − Rpositive control)]/(RDMSO only − Rpositive control) × 100%\]
The dose–response curves of each test compound were plotted as percentage inhibition versus the test concentration.

The subject of data set [2] is HIV-1. As to the kind of experiment: Single-cycle antiviral assay in PBMCs. Type of data set: cell-based. The protocol:
To evaluate the ability of inhibitors to prevent HIV-1 infection in primary cells, human PBMCs obtained from Biological Specialty Corporation (Colmar, PA, USA) were used to assess antiviral activity. The proviral variants used for these studies were generated by site-directed mutagenesis in a proviral vector derived from NL43 [52] that encodes GFP (pNLG1-P2A-GFP). Virus was produced by transfection in 293T cells.
PBMCs were activated with phytohemagglutinin (PHA) at 5 μg/mL in Roswell Park Memorial Institute (RPMI) 1640 medium containing 10% heat-inactivated fetal bovine serum (FBS) for 2–3 days. Compound plates were prepared by dispensing compounds dissolved in DMSO into 384-well poly-d-lysine-coated plates (0.2 μL per well) using an Echo acoustic dispenser (Labcyte; San Jose, CA, USA). Each compound was tested in a 10-point serial 3-fold dilution (typical final concentrations: 5,000 to 0.1 nM). Controls included no inhibitor (DMSO only) and a combination of 3 antiviral agents, efavirenz, indinavir, and the integrase strand transfer inhibitor, L-002254051, at final concentrations of 4 μM each. PHA-activated human PBMCs were washed and resuspended in RPMI 1640 containing 10% NHS and 30 units per mL of interleukin-2 (IL-2) at 6 × 10^5 cells per mL. PBMCs were added to the compound plates and cultured for 24 h at 37 °C, 5% CO2, and 90% humidity. The appropriate HIV-1 variant was added to the PBMCs and cultured at 37 °C, 5% CO2, and 90% humidity for an additional 24 h.
HIV-1–infected cells were quantified by counting the number of GFP cells in each well using an Acumen eX3 scanner (SPT Labtech; Melbourn, UK).

A short description of data set [3]: CellTiter-Glo (CTG) cytotoxicity in MT4-GFP cells. The following applies: human. Background: Cellular ATP, detected with luciferase, serves as a proxy for viable cell number.
The test system of a further data set is MT4-GFP cells. As to the kind of experiment: CellTiter-Glo (CTG) cytotoxicity in MT4-GFP cells. Particulars: read-out: MT4-GFP CTG CC50, CellTiter-Glo.
Where [4] appears, read: Human immunodeficiency virus 1, WT HIV-1, multicycle assay.
The mark [5] stands for this setting: Human immunodeficiency virus 1, PBMC, read-out: PBMC IC50, HIV-1, single-cycle assay, human PBMCs, 10% NHS.

As a reminder, the IC50 is the point on the concentration scale where inhibition reaches its midpoint. A word on the CC50: it is the concentration that lowers cell viability or growth by half.

`C#CC1(CO)CC(n2cnc3c(N)nc(F)nc32)CC1O` (stereo not drawn) [Compound 17, 4-(6-amino-2-fluoro-9H-purin-9-yl)-2-ethynyl-2-(hydroxy-methyl)cyclopentan-1-ol]: the results for the IC50 in the data set with HIV-1 [1] (setting [4]) and in the data set on HIV-1 [2] (setting [5]) were 5.02 µM and 0.383 µM, respectively. In addition, the 50% cytotoxic concentration (CC50) in data set [3] was > 42 µM.
Consider `C#C[C@]1(CO)O[C@@H](n2ccc3c(N)nc(F)nc32)C[C@@H]1O` [Compound 11, (2R,3S,5R)-5-(4-amino-2-fluoro-7H-pyrrolo[2,3-d]pyrimidin-7-yl)-2-ethynyl-2-(hydroxymethyl)tetrahydrofuran-3-ol], for which the IC50 in the data set with HIV-1 [1] (setting [4]) was found to be 0.0168 µM; in the data set with HIV-1 [2] (setting [5]) it was 0.0105 µM. In addition, the cytotoxic concentration (CC50) in data set [3] was > 42 µM.
`C#C[C@]1(CO)O[C@@H](n2cc(F)c3c(N)nc(Cl)nc32)C[C@@H]1O` [Compound 13, (2R,3S,5R)-5-(4-amino-2-chloro-5-fluoro-7H-pyrrolo[2,3-d]pyrimidin-7-yl)-2-ethynyl-2-(hydroxymethyl)tetrahydrofuran-3-ol]: the IC50 with HIV-1 [1] (setting [4]) was determined as 0.0024 µM; in the data set with HIV-1 [2] (setting [5]), 0.0002 µM. Further, the “MT4-GFP IC50” value in the data set with HIV-1 [1] (WT HIV-1, multicycle assay) was “single-digit nanomolar potency”. Also, in the data set with HIV-1 [2] (HIV-1, single-cycle assay, human PBMCs, 10% NHS), the “PBMC IC50” value is “subnanomolar potency”. Further, the half-maximal cytotoxic concentration (CC50) in data set [3] was > 42 µM.
Consider `C#C[C@]1(CO)O[C@@H](n2cc(C)c3c(N)ncnc32)C[C@@H]1O` [Compound 7, (2R,3S,5R)-5-(4-amino-5-methyl-7H-pyrrolo[2,3-d]pyrimidin-7-yl)-2-ethynyl-2-(hydroxymethyl)tetrahydrofuran-3-ol], for which the figures for the IC50 in the data set with HIV-1 [1] (setting [4]) and in the data set with HIV-1 [2] (setting [5]) were 1.68 µM and 0.682 µM, respectively. The CC50 in data set [3] was > 42 µM.
As to `C#C[C@]1(CO)O[C@@H](n2cc(-c3ccn[nH]3)c3c(N)ncnc32)C[C@@H]1O` [Compound 10, (2R,3S,5R)-5-(4-amino-5-(1H-pyrazol-5-yl)-7H-pyrrolo[2,3-d]pyrimidin-7-yl)-2-ethynyl-2-(hydroxymethyl)tetrahydrofuran-3-ol], the IC50 stood at 1.59 µM in the data set with HIV-1 [1] (setting [4]) and 0.907 µM with HIV-1 [2] (setting [5]). Further, the half-maximal cytotoxic concentration (CC50) in data set [3] is > 42 µM.
For the compound `C#C[C@]1(CO)O[C@@H](n2cnc3c(N)nc(C)nc32)C[C@@H]1O` [Compound 2, (2R,3S,5R)-5-(6-amino-2-methyl-9H-purin-9-yl)-2-ethynyl-2-(hydroxymethyl)-tetrahydrofuran-3-ol], the figures for the concentration for half-maximal inhibition (IC50) with HIV-1 [1] (setting [4]) and in the data set with HIV-1 [2] (setting [5]) were 0.109 µM and 0.0359 µM, respectively. The CC50 in data set [3] is > 42 µM.
Consider `C#C[C@]1(CO)O[C@@H](n2c(C)cc3c(N)ncnc32)C[C@@H]1O` [Compound 6, (2R,3S,5R)-5-(4-amino-6-methyl-7H-pyrrolo[2,3-d]pyrimidin-7-yl)-2-ethynyl-2-(hydroxymethyl)tetrahydrofuran-3-ol], for which the IC50 in the data set on HIV-1 [1] (setting [4]) and in the data set with HIV-1 [2] (setting [5]) was > 2 µM in each case. In addition, in data set [3], the cytotoxic concentration (CC50) was > 42 µM.
For the compound `C#C[C@]1(CO)C[C@@H](n2ccc3c(N)nc(Cl)nc32)C[C@@H]1O` [Compound 19, (1S,2S,4R)-4-(4-amino-2-chloro-7H-pyrrolo[2,3-d]pyrimidin-7-yl)-2-ethynyl-2-(hydroxymethyl)cyclopentan-1-ol], the figures for the IC50 in the data set with HIV-1 [1] (setting [4]) and in the data set on HIV-1 [2] (setting [5]) were 22.6 µM and 1.16 µM, respectively. Also, the CC50 in data set [3] was > 42 µM.
With `C#C[C@]1(CO)O[C@@H](n2nnc3c(N)ncnc32)C[C@@H]1O` [Compound 15, (2R,3S,5R)-5-(7-amino-3H-[1,2,3]triazolo[4,5-d]pyrimidin-3-yl)-2-ethynyl-2-(hydroxymethyl)tetrahydrofuran-3-ol], the values for the half-inhibitory concentration (IC50) in the data set on HIV-1 [1] (setting [4]) and with HIV-1 [2] (setting [5]) were 7.59 µM and 7.57 µM, respectively. Moreover, the “MT4-GFP IC50” value in the data set on HIV-1 [1] (WT HIV-1, multicycle assay) was “completely inactive”. Besides, the CC50 in data set [3] was > 42 µM.
As to `C#C[C@]1(CO)O[C@@H](n2cnc3c(N)nc(C(F)(F)F)nc32)C[C@@H]1O` [Compound 3, (2R,3S,5R)-5-(6-amino-2-(trifluoromethyl)-9H-purin-9-yl)-2-ethynyl-2-(hydroxymethyl)tetrahydrofuran-3-ol], the values for the IC50 with HIV-1 [1] (setting [4]) and with HIV-1 [2] (setting [5]) were > 42 µM and > 11.9 µM, respectively. The CC50 in data set [3] is > 42 µM.
In the case of `C#C[C@]1(CO)O[C@@H](c2ccc3c(N)ncnn23)C[C@@H]1O` [Compound 16, (2R,3S,5R)-5-(4-aminopyrrolo[2,1-f][1,2,4]triazin-7-yl)-2-ethynyl-2-(hydroxymethyl)tetrahydrofuran-3-ol], the values for the IC50 with HIV-1 [1] (setting [4]) and in the data set with HIV-1 [2] (setting [5]) were 0.0216 µM and 0.0192 µM, respectively. The CC50 in data set [3] stood at 22.3 µM.
Turning to `C#C[C@]1(CO)C[C@@H](n2cnc3c(=O)[nH]c(N)nc32)C[C@@H]1O` [Compound 20, 2-amino-9-((1R,3S,4S)-3-ethynyl-4-hydroxy-3-(hydroxymethyl)-cyclopentyl)-1,9-dihydro-6H-purin-6-one], the results for the IC50 with HIV-1 [1] (setting [4]) and in the data set with HIV-1 [2] (setting [5]) were 0.103 µM and 0.0204 µM, respectively. The 50% cytotoxic concentration (CC50) in data set [3] is > 42 µM.
The corresponding values for `C#C[C@]1(CO)O[C@@H](n2ccc3c(N)ncnc32)C[C@@H]1O` [Compound 5, (2R,3S,5R)-5-(4-amino-7H-pyrrolo[2,3-d]pyrimidin-7-yl)-2-ethynyl-2-(hydroxymethyl)tetrahydrofuran-3-ol] are 0.0019 µM, 0.0009 µM and 30.8 µM.
The corresponding values for `C#C[C@]1(CO)O[C@@H](n2cnc3c(N)nc(Cl)nc32)C[C@@H]1O` [Compound 1, (2R,3S,5R)-5-(6-amino-2-chloro-9H-purin-9-yl)-2-ethynyl-2-(hydroxymethyl)-tetrahydrofuran-3-ol] are 0.0027 µM, 0.0004 µM and > 42 µM.
For `C#C[C@]1(CO)O[C@@H](n2cnc3c(NC4CC4)nc(F)nc32)C[C@@H]1O` [Compound 4, (2R,3S,5R)-5-(6-(cyclopropylamino)-2-fluoro-9H-purin-9-yl)-2-ethynyl-2-(hydroxymethyl)tetrahydrofuran-3-ol], the values for the half-maximal inhibitory concentration (IC50) with HIV-1 [1] (setting [4]) and in the data set with HIV-1 [2] (setting [5]) were 4.3 µM and 3.29 µM, respectively. For the same compound, the 50% cytotoxic concentration (CC50) in data set [3] is > 42 µM.
Consider “(2R,3S,5R)-5-(4-amino-5-fluoro-7H-pyrrolo[2,3-d]pyrimidin-7-yl)-2-ethynyl-2-(hydroxymethyl)tetrahydrofuran-3-ol [Compound 9]”, for which the IC50 in the data set with HIV-1 [1] (WT HIV-1, multicycle assay) was determined as 37.2 µM; in the data set with HIV-1 [2] (HIV-1, single-cycle assay, human PBMCs, 10% NHS, read-out: PBMC IC50), 3.41 µM. The CC50 in the data set on MT4-GFP cells is > 42 µM.
In the case of `C#CC1(CO)CC(n2cnc3c(N)nc(Cl)nc32)CC1O` (stereo not drawn) [Compound 18, 4-(6-amino-2-chloro-9H-purin-9-yl)-2-ethynyl-2-(hydroxy-methyl)-cyclopentan-1-ol], the values for the IC50 in the data set on HIV-1 [1] (setting [4]) and with HIV-1 [2] (setting [5]) were 22.7 µM and 0.982 µM, respectively. Further, the 50% cytotoxic concentration (CC50) in data set [3] was > 42 µM.
With `C#C[C@]1(CO)O[C@@H](n2ccc3c(N)nc(N)nc32)C[C@@H]1O` [Compound 14, (2R,3S,5R)-5-(2,4-diamino-7H-pyrrolo[2,3-d]pyrimidin-7-yl)-2-ethynyl-2-(hydroxymethyl)tetrahydrofuran-3-ol], the IC50 in the data set on HIV-1 [1] (setting [4]) came out at 0.277 µM; in the data set with HIV-1 [2] (setting [5]), 0.257 µM. Also, the 50% cytotoxic concentration (CC50) in data set [3] is > 42 µM.
